Assay results from PMC6533912 (Journal of medicinal chemistry, 2018).

Tests used:
[1] = target: T1, human 5-HT2CR (unedited INI isoform) (Homo sapiens, UniProt P28335); test: 5-HT-induced Cai2+ release assay in live h5-HT2CR-CHO cells; type: cell-based; details: for allosteric modulator (PAM/NAM) activity on 5-HT-induced Cai2+ release, in words: 1 nM test compound
T1 sequence (P28335 33-458): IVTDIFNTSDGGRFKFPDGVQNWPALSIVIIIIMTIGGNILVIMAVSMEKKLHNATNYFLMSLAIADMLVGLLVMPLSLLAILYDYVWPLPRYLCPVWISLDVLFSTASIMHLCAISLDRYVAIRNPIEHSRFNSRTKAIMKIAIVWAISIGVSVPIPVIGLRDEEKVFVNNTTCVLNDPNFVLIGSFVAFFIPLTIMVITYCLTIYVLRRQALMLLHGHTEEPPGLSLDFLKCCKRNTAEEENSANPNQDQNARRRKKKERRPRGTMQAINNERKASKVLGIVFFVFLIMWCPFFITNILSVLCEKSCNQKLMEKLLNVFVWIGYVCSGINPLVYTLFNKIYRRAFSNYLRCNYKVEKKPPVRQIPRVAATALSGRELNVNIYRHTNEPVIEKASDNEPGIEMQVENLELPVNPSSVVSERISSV

human 5-HT2AR [2] = target: T2, human 5-HT2AR (Homo sapiens, UniProt P28223); test: 5-HT-evoked Cai2+ release assay in live h5-HT2AR-CHO cells; type: cell-based; details: 1 pM, 1 nM, 1 μM
T2 sequence (P28223 whole entry): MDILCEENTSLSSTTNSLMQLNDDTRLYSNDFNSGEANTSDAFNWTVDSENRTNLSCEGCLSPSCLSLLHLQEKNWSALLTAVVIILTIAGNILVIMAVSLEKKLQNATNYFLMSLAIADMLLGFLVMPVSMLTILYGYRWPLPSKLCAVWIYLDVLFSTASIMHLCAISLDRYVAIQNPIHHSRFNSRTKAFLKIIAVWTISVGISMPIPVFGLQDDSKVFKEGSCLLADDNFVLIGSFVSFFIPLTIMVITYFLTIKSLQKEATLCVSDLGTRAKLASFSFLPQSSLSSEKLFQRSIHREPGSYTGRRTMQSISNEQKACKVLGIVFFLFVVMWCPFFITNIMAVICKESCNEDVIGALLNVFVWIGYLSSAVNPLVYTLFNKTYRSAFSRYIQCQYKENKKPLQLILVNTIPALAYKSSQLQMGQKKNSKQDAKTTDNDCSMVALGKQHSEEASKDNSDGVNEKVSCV

male Sprague–Dawley rats [3] = test: Spontaneous locomotor activity; type: in vivo; details: rat
male Sprague–Dawley rats [4] = test: WAY163909 vs saline drug discrimination assay; type: in vivo
male Sprague–Dawley rats [5] = test: Cocaine self-administration cue reactivity test; type: in vivo; details: 1 mg/kg ip, rat
5-HT1BR = 5-HT1BR (Homo sapiens, UniProt P28222); test: NIMH PDSP radioligand displacement; details: read-out: % inhib (10 μm)
5-HT1BR, sequence (P28222 whole entry): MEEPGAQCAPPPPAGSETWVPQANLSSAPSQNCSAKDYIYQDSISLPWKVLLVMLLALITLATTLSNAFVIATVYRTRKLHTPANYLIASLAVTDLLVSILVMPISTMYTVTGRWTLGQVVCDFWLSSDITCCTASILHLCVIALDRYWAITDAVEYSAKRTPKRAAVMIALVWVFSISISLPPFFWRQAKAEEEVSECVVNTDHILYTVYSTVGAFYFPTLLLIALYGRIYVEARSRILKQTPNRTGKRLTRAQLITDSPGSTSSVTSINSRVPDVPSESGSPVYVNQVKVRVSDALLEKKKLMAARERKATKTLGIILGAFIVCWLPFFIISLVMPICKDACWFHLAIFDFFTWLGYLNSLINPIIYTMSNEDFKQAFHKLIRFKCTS

dopamine receptor D4 = target: T3, dopamine receptor D4 (Homo sapiens, UniProt P21917); test: NIMH PDSP radioligand displacement; details: read-out: % inhib (10 μm)
T3 sequence (P21917 1-419): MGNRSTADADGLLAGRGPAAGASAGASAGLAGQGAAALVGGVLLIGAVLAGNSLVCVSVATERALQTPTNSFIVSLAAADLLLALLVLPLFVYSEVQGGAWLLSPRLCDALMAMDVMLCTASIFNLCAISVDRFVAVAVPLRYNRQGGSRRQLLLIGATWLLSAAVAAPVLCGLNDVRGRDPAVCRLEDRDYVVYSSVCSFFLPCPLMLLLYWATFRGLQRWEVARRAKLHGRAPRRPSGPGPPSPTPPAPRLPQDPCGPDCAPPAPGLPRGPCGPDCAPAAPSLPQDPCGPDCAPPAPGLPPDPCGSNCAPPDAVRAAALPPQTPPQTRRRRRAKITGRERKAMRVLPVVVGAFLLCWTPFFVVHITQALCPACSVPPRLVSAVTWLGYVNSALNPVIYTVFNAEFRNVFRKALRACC

[6] = target: norepinephrine transporter (NET) (Homo sapiens, UniProt P23975); test: NIMH PDSP radioligand displacement; details: 10 μM
norepinephrine transporter (NET), sequence (P23975 whole entry, species assumed, canonical isoform): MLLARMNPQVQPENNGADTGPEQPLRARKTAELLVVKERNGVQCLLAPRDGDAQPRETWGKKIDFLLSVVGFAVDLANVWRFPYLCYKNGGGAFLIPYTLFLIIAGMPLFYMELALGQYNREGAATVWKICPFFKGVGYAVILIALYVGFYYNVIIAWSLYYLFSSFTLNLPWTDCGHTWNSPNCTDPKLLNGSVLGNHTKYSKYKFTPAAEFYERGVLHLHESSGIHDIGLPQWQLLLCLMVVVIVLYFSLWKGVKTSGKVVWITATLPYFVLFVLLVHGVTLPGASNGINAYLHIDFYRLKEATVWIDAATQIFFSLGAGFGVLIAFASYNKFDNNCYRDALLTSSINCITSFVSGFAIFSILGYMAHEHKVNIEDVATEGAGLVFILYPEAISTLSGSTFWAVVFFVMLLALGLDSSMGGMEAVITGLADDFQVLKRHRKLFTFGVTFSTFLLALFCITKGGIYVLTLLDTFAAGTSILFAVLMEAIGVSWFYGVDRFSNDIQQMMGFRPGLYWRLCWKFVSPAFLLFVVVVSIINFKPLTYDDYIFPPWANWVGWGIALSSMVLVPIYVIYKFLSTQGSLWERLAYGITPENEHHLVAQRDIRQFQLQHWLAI

[7] = target: T1, human 5-HT2CR (unedited INI isoform); details: cited from earlier work
human 5-HT2AR [8] = target: T2, human 5-HT2AR; details: cited from earlier work

CCCCCCCCCCC[C@@H]1CCN[C@H](C(=O)NC[C@@H](O)CO)C1 (mixture of isomers) [Compound 16a, cis-N-((R)-2,3-Dihydroxypropyl)-4-undecylpiperidine-2-carboxamide]
allosteric modulator (PAM/NAM) activity on 5-HT-induced Cai2+ release, in words [1]: lacked appreciable PAM activity

CCCCCCCCCCC[C@@H]1CCN[C@H](C(=O)NC[C@H](O)CO)C1 (mixture of isomers) [Compound 16b, cis-N-((S)-2,3-Dihydroxypropyl)-4-undecylpiperidine-2-carboxamide]
allosteric modulator (PAM/NAM) activity on 5-HT-induced Cai2+ release, in words [1]: displayed significant PAM activity

CCCCCCCCCCC[C@@H]1CCN[C@H](C(=O)NCCO)C1 (relative stereo) [Compound 8, cis-N-(2-Hydroxyethyl)-4-undecylpiperidine-2-carboxamide]
allosteric modulator (PAM/NAM) activity on 5-HT-induced Cai2+ release, in words [1]: no significant PAM activity

CCCCCCCCCCC[C@@H]1CCN[C@H](C(=O)NCC(O)CO)C1 (relative stereo) [Compound 16, cis-4-Undecylpiperidine-2-carboxylic Acid (2,3-Dihydroxypropyl)amide]
effect on 5-HT potency (leftward shift of 5-HT curve) ([1]; 1 pM, 1 nM, 1 μM): did not impact 5-HT potency
shift of 5-HT-evoked Cai2+ release concentration-response curve ([1]; 1 pM, 1 nM, 1 μM): upward shift of 5-HT-evoked Cai^2+ release at multiple concentrations
allosteric modulator (PAM/NAM) activity on 5-HT-induced Cai2+ release, in words [1]: significant PAM activity
intrinsic agonist efficacy to induce Cai2+ release in the absence of 5-HT ([1]; 1 nM, compound alone): did not stimulate Cai^2+ release
change in 5-HT Emax or EC50 at the 5-HT2AR (human 5-HT2AR [2]): no change in the 5-HT Emax or EC50
ambulations (male Sprague–Dawley rats [3]; 1 mg/kg ip): not associated with suppressed ambulations
mean total ambulations in 30 min vs saline (male Sprague–Dawley rats [3]; 5 mg/kg ip): significantly reduced mean total ambulations
mean total vertical activity in 30 min vs saline (male Sprague–Dawley rats [3]; 5 mg/kg ip): significantly reduced mean total vertical activity
substitution for the WAY163909 stimulus, in words (male Sprague–Dawley rats [4]; 0.125–1.0 mg/kg ip, given alone): partially substituted for WAY163909
previously active lever presses reinforced by the discrete cue complex vs saline (male Sprague–Dawley rats [5]; 15 min before cue reactivity session): significantly lower
inactive lever presses vs saline (male Sprague–Dawley rats [5]): did not significantly alter inactive lever presses
inhibition at 10 µM (5-HT1BR): -18.1%
inhibition at 10 µM (dopamine receptor D4): -14.2%
displacement of radioligand binding [6]: did not displace binding

CCCCCCCCCCC[C@@H]1CCN[C@H](C(=O)N[C@@H]([C@H]2O[C@H](SC)[C@H](O)[C@@H](O)[C@H]2O)[C@H](C)Cl)C1.Cl [Compound 1]
shift of the 5-HT-evoked Cai2+ response curve ([7]; 1 nM, previous titration studies): leftward shift of the 5-HT-evoked Cai^2+ response curve
intrinsic agonist activity at the 5-HT2CR [7]: no intrinsic agonist activity
intrinsic agonist activity at the 5-HT2AR (human 5-HT2AR [8]): no intrinsic agonist activity

CCCCCCCCCCC[C@@H]1CCN[C@H](C(=O)O)C1 [Compound 7, (cis-2,4)-4-Undecylpiperidine-2-carboxylic acid]
allosteric modulator (PAM/NAM) activity on 5-HT-induced Cai2+ release, in words [1]: no significant PAM activity

c1cc2c3c(c1)[C@H]1CCC[C@H]1N3CCNC2 [WAY163909, (7b-R,10a-R)-1,2,3,4,8,9,10,10a-octahydro-7bH-cyclopenta[b][1,4]diazepino[6,7,1hi]indole]
WAY163909-appropriate responding (male Sprague–Dawley rats [4]; 0.5 mg/kg ip, given alone): ~30%
dose predicted to elicit 50% of WAY163909-lever responding (ED50) (male Sprague–Dawley rats [4]; ip, rats trained on WAY163909 0.75 mg/kg vs saline, log-probit): 0.53 mg/kg
WAY163909-appropriate responding (male Sprague–Dawley rats [4]; training dose 0.75 mg/kg ip): Greater than 95%
